Source: patent US6518262B1, “22R-hydroxycholesta-8, 14-diene derivatives for the inhibition of meiosis” (Akzo Nobel N.V., priority 1999, dated 2003)

Tested on: denuded oocytes (DO)
Assay: Oocyte assay, antagonistic testing, inhibition of FF-Mas induced maturation in denuded oocytes (DO assay)
Type: cell-based, mice (B6D2-F1, strain C57BL×DBA)
Settings: FF-Mas 5 μM, compound tested 5 μM, control (FF-Mas alone) in brackets
Procedure: The meiosis inhibiting activity of the 22R-hydroxycholesta-8,14-diene derivatives of the invention is measured in an in vitro oocyte assay as the ability to inhibit the FF-Mas or 22S-hydroxy-FF-Mas induced maturation, in hypoxanthine media, in denuded oocytes (DO) or cumulus enclosed oocytes (CEO), respectively. Natural resumption of meiosis can be mimicked in vitro by addition of FF-Mas or other agonists to the culture medium containing hypoxanthine. The antagonistic activity of the compounds is measured as the ability to inhibit the FF-Mas or 22S-hydroxy-FF-Mas induced oocyte maturation in denuded oocytes or cumulus enclosed oocytes, respectively, in vitro. Ovaries are obtained from immature female mice (B6D2-F1, strain C57BL×DBA). At the age of 19, 20 or 21 days the mice are injected subcutaneously with a single dose of 20 IU follicle stimulating hormone (Humegon, Organon, The Netherlands) in saline. Forty-eight hours after follicle stimulating hormone injection mice are killed by cervical dislocation. The ovaries are removed, freed of extraneous tissue and placed in a multidish containing 0.5 ml preparation medium at 37° C. L-15 Leibovitz medium (Gibco, pH 7.3±0.1) supplemented with bovine serum albumin (3 mg·ml^−1), L-glutamine (0.23 mM), sodium pyruvate (2 mM) and hypoxanthine (4 mM) is used as preparation medium. The antral follicles of the ovaries are punctured under a dissecting microscope using two 27-gauge needles attached to two 1 ml syringes. […] At t=0 the number of oocytes with intact germinal vesicles (GV) or germinal vesicle break-down (GVBD) is counted under an inverted microscope with differential interference contrast equipment. […] At the end of the culture period the number of oocytes with GV or GVBD per group is counted. For statistical analysis the percentage germinal vesicle breakdown is calculated for each group in one block. These percentages are subjected to arcsin transformation, and differences between control and test compounds are analyzed by an ANOVA test for a randomized block design. […]

CC(C)CC[C@@H](O)[C@@H](C)[C@H]1CC=C2C3=C(CC[C@@]21C)[C@@]1(C)CC[C@H](O)C(C)(C)[C@@H]1CC3 [Example 1, (3β,5α,20S,22R)-4,4-Dimethylcholesta-8,14-diene-3,22-diol]
% GVBD DO assay exp.: 0(55) %

CC(C)=CC[C@@H](O)[C@@H](C)[C@H]1CC=C2C3=C(CC[C@@]21C)[C@@]1(C)CC[C@H](O)C(C)(C)[C@@H]1CC3 [Example 2, (3β,5α,20S,22R)-4,4-Dimethylcholesta-8,14,24-triene-3,22-diol]
% GVBD DO assay exp.: 0(90) %
